In patent publication US20260062422A1 (Halda Therapeutics OpCo, Inc., priority 2022, published 2026):

Key:
VCaP cells = assay: Cellular growth inhibition assay for VCaP cells, CellTiter-Glo; assay type: cell-based, human; settings: 72 hours treatment, CellTiter-Glo 2.0
How it was run: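 GI50 values come from four-parameter curve fits of luminescence data normalized to a zero baseline. Compound, in medium with 0.5% DMSO, was added one day after plating and left for 72 h before CellTiter-Glo 2.0 addition.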

[1] = test system: T-Rex 293 cell line SC3 cells having increased expression of androgen receptor protein due to exposure to doxycycline; assay: Cellular growth inhibition, T-Rex 293 SC3 cells with doxycycline (androgen receptor induced), CellTiter-Glo; assay type: cell-based; settings: T-Rex 293 SC3 cells with 10 ng/mL doxycycline (increased androgen receptor expression)
How it was run: (§1)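 Growth inhibition was compared in a T-Rex 293 clone with and without doxycycline (10 ng/mL)-driven androgen receptor overexpression. Compounds were applied for 72 h in hormone-depleted serum, and GI50 came from four-parameter curves of CellTiter-Glo signal.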

[2] = test system: T-Rex 293 cell line SC3 cells lacking increased expression of androgen receptor protein; assay: Cellular growth inhibition, T-Rex 293 SC3 cells without doxycycline, CellTiter-Glo; assay type: cell-based; settings: T-Rex 293 SC3 cells not exposed to doxycycline, CellTiter-Glo 2.0
How it was run: as §1

T47D cells = assay: Cellular growth inhibition assay for T47D cells, CellTiter-Glo; assay type: cell-based, human; settings: 72 hours treatment, CellTiter-Glo 2.0 cell viability
How it was run: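 Growth inhibition as GI50, fitted with four parameters to CellTiter-Glo luminescence after 72 h of compound exposure (0.5% DMSO). Cells were T47D, grown in insulin-supplemented (0.2 units/mL) DMEM with 10% FBS and treated one day post-seeding.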

SMILES	GI50 (VCaP cells; Homo sapiens, VCaP, 72 h) [nM]	GI50 ([1]; 72 h) [nM]	GI50 ([2]; 72 h) [nM]	GI50 (T47D cells; Homo sapiens, T47D, 72 h) [nM]	GI50 (VCaP cells) [nM]	GI50 ([1]; 72 hours) [nM]	GI50 ([2]; 72 hours) [nM]	GI50 (T47D cells) [nM]
Cc1sc2c(c1C)C(c1ccc(C#CC3CC4(C3)CN(c3ncc(C(=O)N[C@H]5C(C)(C)[C@H](Oc6ccc(C#N)c(Cl)c6)C5(C)C)cn3)C4)cc1)=N[C@@H](Cc1ncco1)c1nnc(C)n1-2 [Compound I-59]	< 500	< 500	< 500	< 500	–	–	–	–
Cc1sc2c(c1C)C(c1ccc(CN3CC4(CCCN(c5ncc(C(=O)N[C@H]6C(C)(C)[C@H](Oc7ccc(C#N)c(Cl)c7)C6(C)C)cn5)C4)C3)cc1)=N[C@H](Cc1ncco1)c1nnc(C)n1-2 [Compound I-149]	500 to 1500	< 500	> 3000	> 3000	–	–	–	–
COCC[C@@H]1N=C(c2ccc(N3CC(CC4CN(c5cnc(C(=O)N[C@H]6C(C)(C)[C@H](Oc7ccc(C#N)c(Cl)c7)C6(C)C)cn5)C4)C3)cc2)c2c(sc(C)c2C)-n2c(C)nnc21 [Compound I-611]	< 500	< 500	< 500	1500 to 3000	–	–	–	–
Cc1sc2c(c1C)C(c1ccc(N3C[C@@H]4[C@H](C3)[C@H]4Nc3ncc(C(=O)N[C@H]4C(C)(C)[C@H](Oc5ccc(C#N)c(Cl)c5)C4(C)C)cn3)cc1)=N[C@@H](Cc1ncco1)c1nnc(C)n1-2 [Compound I-657]	< 500	< 500	< 500	< 500	–	–	–	–
Cc1sc2c(c1C)C(c1ccc(C(=O)N3CCC(C(=O)c4ncc(C(=O)N[C@H]5C(C)(C)[C@H](Oc6ccc(C#N)c(Cl)c6)C5(C)C)cn4)CC3)cc1)=N[C@@H](Cc1ncco1)c1nnc(C)n1-2 [Compound I-382]	–	–	–	–	> 3000	< 500	> 3000	> 3000
Cc1sc2c(c1C)C(c1ccc(N3CCC[C@H](C(=O)N4CCC[C@@H](c5ncc(C(=O)N[C@H]6C(C)(C)[C@H](Oc7ccc(C#N)c(Cl)c7)C6(C)C)cn5)C4)C3)cc1)=N[C@@H](Cc1ncco1)c1nnc(C)n1-2 [Compound I-337]	< 500	< 500	500 to 1500	< 500	–	–	–	–
CCNC(=O)C[C@@H]1N=C(c2ccc(OCCN3CCN(c4ncc(C(=O)N[C@H]5C(C)(C)[C@H](Oc6ccc(C#N)c(Cl)c6)C5(C)C)cn4)CC3)cc2)c2c(sc(C)c2C)-n2c(C)nnc21 [Compound I-70]	< 500	< 500	500 to 1500	500 to 1500	–	–	–	–
Cc1sc2c(c1C)C(c1ccc(N3CCC4(CC3)CCN(c3ncc(C(=O)N[C@H]5C(C)(C)[C@H](Oc6ccc(C#N)c(Cl)c6)C5(C)C)cn3)CC4)cc1)=N[C@@H](Cc1ncco1)c1nnc(C)n1-2 [Compound I-645]	< 500	< 500	> 3000	< 500	–	–	–	–
Cc1sc2c(c1C)C(c1ccc(CN3CC4(CCCN(c5ncc(C(=O)N[C@H]6C(C)(C)[C@H](Oc7ccc(C#N)c(Cl)c7)C6(C)C)cn5)C4)C3)cc1)=N[C@@H](Cc1ncco1)c1nnc(C)n1-2 [Compound I-148]	< 500	< 500	< 500	< 500	–	–	–	–
Cc1sc2c(c1C)C(c1ccc(O[C@@H]3CC[C@@]4(CCCN(c5ncc(C(=O)N[C@H]6C(C)(C)[C@H](Oc7ccc(C#N)c(Cl)c7)C6(C)C)cn5)C4)C3)cc1)=N[C@@H](Cc1ncco1)c1nnc(C)n1-2 [Compound I-201]	< 500	< 500	> 3000	< 500	–	–	–	–
Cc1sc2c(c1C)C(c1ccc(CC(C)(C)N3CC4(CCCN(c5ncc(C(=O)N[C@H]6C(C)(C)[C@H](Oc7ccc(C#N)c(Cl)c7)C6(C)C)cn5)C4)C3)cc1)=N[C@@H](Cc1ncco1)c1nnc(C)n1-2 [Compound I-429]	< 500	< 500	1500 to 3000	< 500	–	–	–	–
Cc1sc2c(c1C)C(c1ccc(OC[C@@H]3CCCN(c4ncc(C(=O)N[C@H]5C(C)(C)[C@H](Oc6ccc(C#N)c(Cl)c6)C5(C)C)cn4)C3)cc1)=N[C@@H](C)c1nnc(C)n1-2 [Compound I-352]	< 500	< 500	> 3000	> 3000	–	–	–	–
Cc1sc2c(c1C)C(c1ccc(N3CC(C4CCN(c5ncc(C(=O)N[C@H]6C(C)(C)[C@H](Oc7ccc(C#N)c(Cl)c7)C6(C)C)cn5)C4)C3)cc1)=NC1(CC1)c1nnc(C)n1-2 (some centres unmarked) [Compound I-605]	–	–	–	–	< 500	< 500	< 500	500 to 1500
Cc1sc2c(c1C)C(c1ccc(CC3CCC4(C3)CN(c3ncc(C(=O)N[C@H]5C(C)(C)[C@H](Oc6ccc(C#N)c(Cl)c6)C5(C)C)cn3)CCO4)cc1)=N[C@@H](C)c1nnc(C)n1-2 (some centres unmarked) [Compound I-620]	–	–	–	–	< 500	< 500	< 500	500 to 1500
CC[C@@H]1N=C(c2ccc(CC3CCC4(C3)CN(c3ncc(C(=O)N[C@H]5C(C)(C)[C@H](Oc6ccc(C#N)c(Cl)c6)C5(C)C)cn3)CCO4)cc2)c2c(sc(C)c2C)-n2c(C)nnc21 (some centres unmarked) [Compound I-612]	500 to 1500	< 500	–	–	–	–	500 to 1500	1500 to 3000
CCNC(=O)C[C@@H]1N=C(c2ccc(OC3CC(N(C)C4CCN(c5ncc(C(=O)N[C@H]6C(C)(C)[C@H](Oc7ccc(C#N)c(Cl)c7)C6(C)C)cn5)CC4)C3)cc2)c2c(sc(C)c2C)-n2c(C)nnc21 (some centres unmarked) [Compound I-82]	500 to 1500	< 500	500 to 1500	< 500	–	–	–	–
Cc1sc2c(c1C)C(c1ccc(O[C@H]3CC[C@@]4(CCN(c5ncc(C(=O)N[C@H]6C(C)(C)[C@H](Oc7ccc(C#N)c(Cl)c7)C6(C)C)cn5)C4)CC3)cc1)=N[C@@H](Cc1ncco1)c1nnc(C)n1-2 [Compound I-179]	< 500	< 500	< 500	500 to 1500	–	–	–	–
Cc1sc2c(c1C)C(c1ccc(CN3CC(=O)N4C[C@@H](c5ncc(C(=O)N[C@H]6C(C)(C)[C@H](Oc7ccc(C#N)c(Cl)c7)C6(C)C)cn5)C[C@H]4C3=O)cc1)=N[C@@H](Cc1ncco1)c1nnc(C)n1-2 [Compound I-358]	< 500	< 500	> 3000	500 to 1500	–	–	–	–
Cc1sc2c(c1C)C(c1ccc(Cl)cc1)=N[C@H](CC(=O)NCCCCOC1CCN(c3ncc(C(=O)N[C@H]4C(C)(C)[C@H](Oc5ccc(C#N)c(Cl)c5)C4(C)C)cn3)CC1)c1nnc(C)n1-2 [Compound I-21]	< 500	< 500	> 3000	500 to 1500	–	–	–	–
Cc1sc2c(c1C)C(c1ccc(OC3CC4(CCN(c5ccc(C(=O)N[C@H]6C(C)(C)[C@H](Oc7ccc(C#N)c(Cl)c7)C6(C)C)cc5)CC4)C3)cc1)=N[C@@H](Cc1ncco1)c1nnc(C)n1-2 [Compound I-196]	500 to 1500	< 500	> 3000	< 500	–	–	–	–
Cc1sc2c(c1C)C(c1ccc(CCO[C@@H]3CCCN(c4ncc(C(=O)N[C@H]5C(C)(C)[C@H](Oc6ccc(C#N)c(Cl)c6)C5(C)C)cn4)C3)cc1)=N[C@@H](C)c1nnc(C)n1-2 [Compound I-367]	< 500	< 500	> 3000	500 to 1500	–	–	–	–
Cc1noc2c1-c1ccccc1C(c1ccc(O[C@H]3C[C@]4(CN(c5ncc(C(=O)N[C@H]6C(C)(C)[C@H](Oc7ccc(C#N)c(Cl)c7)C6(C)C)cn5)CCO4)C3)cc1)=N[C@H]2Cc1ncco1 [Compound I-223]	> 3000	< 500	> 3000	> 3000	–	–	–	–
Cc1sc2c(c1C)C(c1ccc(C[C@H]3C[C@]4(CN(c5ncc(C(=O)N[C@H]6C(C)(C)[C@H](Oc7ccc(C#N)c(Cl)c7)C6(C)C)cn5)CCO4)C3)cc1)=N[C@@H](Cc1ncco1)c1nnc(C)n1-2 [Compound I-245]	< 500	< 500	< 500	< 500	–	–	–	–
